These results are taken from patent US9624213B2 (Plexxikon Inc., priority 2011, dated 2017).

SMILES strings stand for the structures. Bounds are passed on as bounds.

For one assay, the target named is B-Raf V600E (Homo sapiens (Human), UniProt P15056, V600E). In words: B-Raf V600E kinase biochemical activity (AlphaScreen, biotin-MEK1 substrate). Particulars: 100 μM ATP. The method, then: Assays for biochemical and cell based activity are known in the art, for example, as described in PCT publication WO 2007/002433, the disclosure of which is hereby incorporated by reference as it relates to such assays. For example, the biochemical activity IC50 values are determined with respect to inhibition of B-Raf V600E kinase activity or p-Erk kinase activity, where inhibition of phosphorylation of a peptide substrate is measured as a function of compound concentration. Compounds to be tested are diluted in dimethyl sulfoxide to a concentration of 0.1 mM. These are serially diluted 15 μL into 30 μL of dimethyl sulfoxide seven times in 96 well plates for a total of 8 dilution points, and for each dilution point 1 μL is added to a well of an assay plate. Plates are prepared such that each well in a 384 well plate contains 1 μL of compound in 10 μL volume with 0.1 ng Raf enzyme (i.e. any of B-Raf, c-Raf-1 or B-Raf V600E, Upstate Biotechnology or prepared by methods known to one of skill in the art), 50 mM HEPES, pH 7.0, 50 mM NaCl, 2 mM MgCl2, 1 mM MnCl2, 0.01% Tween-20, 1 mM DTT, and 100 nM biotin-MEK1 as substrate. The reaction is started with addition of 10 μL of 200 μM ATP (i.e. final 100 μM ATP). After incubation of the kinase reaction for 45 minutes at room temperature, 5 μL/well of Stop Solution is added (25 mM Hepes pH 7.5, 100 mM EDTA, 0.01% BSA with donor beads (Streptavidin coated beads, Perkin Elmer), acceptor beads (Protein A coated, Perkin Elmer), and anti phosphor MEK1/2 antibody (CellSignal), each at final concentration 10 μg/mL). The plates are incubated for 3 hours at room temperature and read on Envision reader (Perkin Elmer). Phosphorylation of Mek1 results in binding of the anti-phosphor-MEK1/2antibody and association of the donor and acceptor beads such that signal correlates with kinase activity. The signal vs. compound concentration is used to determine the IC50.
B-Raf V600E, sequence (P15056 whole entry V600E): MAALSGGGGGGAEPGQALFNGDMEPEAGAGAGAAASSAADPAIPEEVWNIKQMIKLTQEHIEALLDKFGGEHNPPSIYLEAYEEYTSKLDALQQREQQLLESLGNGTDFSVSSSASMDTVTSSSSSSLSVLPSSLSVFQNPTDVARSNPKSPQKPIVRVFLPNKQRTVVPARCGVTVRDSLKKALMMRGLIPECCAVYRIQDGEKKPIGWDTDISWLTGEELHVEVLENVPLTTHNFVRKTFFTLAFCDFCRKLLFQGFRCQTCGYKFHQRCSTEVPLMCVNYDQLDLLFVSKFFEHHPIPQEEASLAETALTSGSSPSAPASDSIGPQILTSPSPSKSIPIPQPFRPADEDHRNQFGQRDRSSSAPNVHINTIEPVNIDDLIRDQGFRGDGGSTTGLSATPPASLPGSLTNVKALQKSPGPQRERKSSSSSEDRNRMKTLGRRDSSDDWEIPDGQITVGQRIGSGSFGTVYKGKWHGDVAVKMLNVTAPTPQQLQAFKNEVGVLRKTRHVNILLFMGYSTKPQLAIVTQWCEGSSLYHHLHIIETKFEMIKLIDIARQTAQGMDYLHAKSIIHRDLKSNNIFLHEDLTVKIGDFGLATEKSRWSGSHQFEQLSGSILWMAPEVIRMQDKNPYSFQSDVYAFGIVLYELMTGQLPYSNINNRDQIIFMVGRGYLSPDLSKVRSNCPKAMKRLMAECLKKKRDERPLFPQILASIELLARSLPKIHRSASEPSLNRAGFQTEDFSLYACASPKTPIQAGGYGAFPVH

The subject of another assay is A375. In words: A375_P-ERK / A375 cell activity. Particulars: Homo sapiens, A-375; A375 cells (A375_P-ERK). The format is cell-based. The method, then: (§1) Compounds are assessed in a variety of cell based assays. For example human cell lines with B-Raf V600E mutation (A375 melanoma, SKMEL3 melanoma, and COLO205 colon adenocarcinoma), as well as tumorigenic cell lines with wild-type B-RAF (SW620 colon adenocarcinoma) or with Ras mutations (SKMEL2 melanoma and IPC298 melanoma). Similar assays may be used to assess additional tumorigenic cell lines with Ras mutations, including, but not limited to, M202, M207, M243, M244, M296, S117, HCT116, HCT15, DLD1, MiaPaCa, A549, NCI-H23, NCI-H460, HOP62, MDA-MB231, Hs-578T, HL60, MOLT-4, and CCRF-CEM.
(§2) On day 1, cells are counted, then centrifuged in a conical tube for 5 minutes at 1000 rpm. The supernatant is removed and cells are re-suspended as follows: • SW620 (ATCC catalog #CCL-27): resuspend in Leibovitz's L-15 medium, 2 mM L-glutamine, 10% fetal bovine serum to 6×10^4 cells/mL. • A375 (ATCC catalog #CRL-1619): resuspend in Dulbecco's modified Eagle's medium, 4 mM L-glutamine, 4.5 g/L D-glucose, 10% fetal bovine serum to 6×10^4 cells/mL. • COLO205 (ATCC catalog #CCL-222): resuspend in RPMI 1640, 2 mM L-glutamine, 1.5 g/L sodium bicarbonate, 4.5 g/L D-glucose, 10 mM HEPES, 1.0 mM sodium pyruvate, 10% fetal bovine serum to 6×10^4 cells/mL. • SKMEL2 (ATCC catalog #HTB-68): resuspend in Minimum Eagle essential medium, 2 mM L-glutamine, 1.5 g/L sodium bicarbonate, 0.1 mM non-essential amino acids, 1.0 mM sodium pyruvate, 10% fetal bovine serum to 6×10^4 cells/mL. • SKMEL3 (ATCC catalog #HTB-69): resuspend in McCoy's 5A medium, 1.5 mM L-glutamine, 15% fetal bovine serum to 6×10^4 cells/mL. • IPC298 (DSMZ catalog #ACC 251): resuspend in RPMI 1640, 2 mM L-glutamine, 10% fetal bovine serum to 6×10^4 cells/mL.
(§3) The cells are plated, 50 μL in each well of a 96-well dish (Corning 3610) and incubated at 37° C. in 5% CO2 overnight, cells plated to a final concentration of cells as follows: • SW620: 5,000 cells per well. • A375: 2,000 cells per well. • COLO205: 2,000 cells per well. • SKMEL2: 2,000 cells per well. • SKMEL3: 3,000 cells per well. • IPC298: 2,000 cells per well.
(§4) On day 2, compound at a maximum concentration of 5 mM is serially diluted 1:3 (e.g. 10 μL with 30 μL dimethyl sulfoxide) for a total of 8 point titration with DMSO as a control. A 1 μL aliquot of each dilution point and control is added to 249 μL growth media and 50 μL is added to a well containing cells, providing 10 μM compound at the maximum concentration point. The cells are incubated for 3 days at 37° C. in 5% CO2.
(§5) On day 5, ATPlite 1 step Luminescence Assay System (Perkin Elmer #6016739) is brought to room temperature along with the cell cultures. ATPlite is added 25 μL to each well, shake for 2 minutes, and the cells are incubated at room temperature for 10 minutes, then luminescence is read on Satire reader. The measured luminescence correlates directly with cell number, such that the reading as a function of compound concentration is used to determine the IC50 value.

The subject of a further assay is COLO205. In words: COLO205 cell growth inhibitory activity (ATPlite). The format is cell-based. Particulars: Homo sapiens, COLO 205, 72 h; COLO205 cells, growth inhibition, 3 days. The method, then:
as §1, §2, §3, §4, §5

Consider `N#CC1(c2ccc(-c3cnc4[nH]cc(C(=O)c5c(F)ccc(NS(=O)(=O)N6CCCC6)c5F)c4c3)cc2)CC1` [Compound P-0248, N-[3-[5-[4-(1-cyanocyclopropyl)phenyl]-1H-pyrrolo[2,3-b]pyridine-3-carbonyl]-2,4-difluoro-phenyl]pyrrolidine-1-sulfonamide], for which the 50% inhibitory concentration (IC50) at B-Raf V600E was under 0.1 µM.

`CCN(C)S(=O)(=O)Nc1ccc(F)c(C(=O)c2c[nH]c3ncc(-c4ccc(C5(C#N)CC5)cc4)cc23)c1F` [Compound P-0239, 5-[4-(1-cyanocyclopropyl)phenyl]-3-[3-[[ethyl(methyl)sulfamoyl]amino]-2,6-difluoro-benzoyl]-1H-pyrrolo[2,3-b]pyridine]: on B-Raf V600E, the IC50 was under 0.1 µM.

As for `Cn1cc(-c2cnc3[nH]cc(C(=O)c4cccc(NS(=O)(=O)CC5CC5)c4F)c3c2)cn1` [Compound P-0042, 1-cyclopropyl-N-[2-fluoro-3-[5-(1-methylpyrazol-4-yl)-1H-pyrrolo[2,3-b]pyridine-3-carbonyl]phenyl]methanesulfonamide], the IC50 at B-Raf V600E is under 0.1 µM.

On to `CCCN(C)S(=O)(=O)Nc1cccc(C(=O)c2c[nH]c3ncc(-c4cnc(C5CC5)nc4)cc23)c1F` [Compound P-0086, 5-(2-cyclopropylpyrimidin-5-yl)-3-[2-fluoro-3-[[methyl(propyl)sulfamoyl]amino]benzoyl]-1H-pyrrolo[2,3-b]pyridine], for which the IC50 in the assay with A375 and with COLO205 was under 1 µM throughout.

As for `CN(C)S(=O)(=O)Nc1cccc(C(=O)c2c[nH]c3ncc(-c4ccc(C(C)(C)O)cc4)cc23)c1F` [Compound P-0103, 3-[3-(dimethylsulfamoylamino)-2-fluoro-benzoyl]-5-[4-(1-hydroxy-1-methyl-ethyl)phenyl]-1H-pyrrolo[2,3-b]pyridine], the IC50 in the assay on A375 and in the assay on COLO205 was under 1 µM in each case.

As for `O=C(c1c(F)ccc(NS(=O)(=O)N2CCCC2)c1F)c1c[nH]c2ncc(F)c(I)c12` [Compound P-0015, N-[2,4-difluoro-3-(5-fluoro-4-iodo-1H-pyrrolo[2,3-b]pyridine-3-carbonyl)phenyl]pyrrolidine-1-sulfonamide], the IC50 was under 1 µM with A375 and over 1 µM with COLO205.

`COc1ncc(-c2cnc3[nH]cc(C(=O)c4cccc(NS(=O)(=O)N(C)C(C)C)c4F)c3c2)cn1` [Compound P-0075, 3-[2-fluoro-3-[[isopropyl(methyl)sulfamoyl]amino]benzoyl]-5-(2-methoxypyrimidin-5-yl)-1H-pyrrolo[2,3-b]pyridine]: the IC50 was under 1 µM with A375 and over 1 µM in the assay on COLO205.

Turning to `CCN(C)S(=O)(=O)Nc1cccc(C(=O)c2c[nH]c3ncc(-c4cccnc4)cc23)c1F` [Compound P-0032], the IC50 in the assay with A375 and in the assay on COLO205 was under 1 µM throughout.

With `CCN(C)S(=O)(=O)Nc1ccc(F)c(C(=O)c2c[nH]c3ncc(-c4ccc(C#N)cc4)cc23)c1F` [Compound P-0300, 5-(4-cyanophenyl)-3-[3-[[ethyl(methyl)sulfamoyl]amino]-2,6-difluoro-benzoyl]-1H-pyrrolo[2,3-b]pyridine], the values for the IC50 in the assay on A375 and with COLO205 were under 1 µM and over 1 µM, respectively.

For the molecule `O=C(c1c(F)ccc(NS(=O)(=O)N2CCCC2)c1F)c1c[nH]c2ncc(-c3cnc(N4CCOCC4)nc3)cc12` [Compound P-0266, N-[2,4-difluoro-3-[5-(2-morpholinopyrimidin-5-yl)-1H-pyrrolo[2,3-b]pyridine-3-carbonyl]phenyl]pyrrolidine-1-sulfonamide], the IC50 in the assay with A375 and in the assay with COLO205 was under 1 µM throughout.

Consider `O=C(c1c(F)ccc(NS(=O)(=O)N2CCC(F)(F)C2)c1F)c1c[nH]c2ncc(-c3cnc(C4CC4)nc3)cc12` [Compound P-0288, N-[3-[5-(2-cyclopropylpyrimidin-5-yl)-1H-pyrrolo[2,3-b]pyridine-3-carbonyl]-2,4-difluoro-phenyl]-3,3-difluoro-pyrrolidine-1-sulfonamide], for which the IC50 in the assay on A375 and with COLO205 was under 1 µM in each case.

For `O=C(c1c(F)ccc(NS(=O)(=O)N2CCCC2)c1F)c1c[nH]c2ncc(I)cc12` [Compound P-0024], the IC50 is under 1 µM in the assay on A375 and over 1 µM with COLO205.

In the case of `CCN(C)S(=O)(=O)Nc1cccc(C(=O)c2c[nH]c3ncc(-c4cnc(N5CCCC5)nc4)cc23)c1F` [Compound P-0108, 3-[3-[[ethyl(methyl)sulfamoyl]amino]-2-fluoro-benzoyl]-5-(2-pyrrolidin-1-ylpyrimidin-5-yl)-1H-pyrrolo[2,3-b]pyridine], the 50% inhibitory concentration (IC50) with A375 is under 1 µM; in the assay with COLO205, over 1 µM.

For `N#Cc1ncc(-c2cnc3[nH]cc(C(=O)c4cccc(NS(=O)(=O)N5CCCC5)c4F)c3c2)cn1` [Compound P-0091, N-[3-[5-(2-cyanopyrimidin-5-yl)-1H-pyrrolo[2,3-b]pyridine-3-carbonyl]-2-fluoro-phenyl]pyrrolidine-1-sulfonamide], the IC50 with A375 and with COLO205 was under 1 µM throughout.

With `CN(C)S(=O)(=O)Nc1ccc(F)c(C(=O)c2c[nH]c3ncc(-c4ccc(C5(C#N)CC5)cc4)cc23)c1F` [Compound P-0237, 5-[4-(1-cyanocyclopropyl)phenyl]-3-[3-(dimethylsulfamoylamino)-2,6-difluoro-benzoyl]-1H-pyrrolo[2,3-b]pyridine], on B-Raf V600E, the IC50 was under 0.1 µM.

One may read the IC50 as the point on the concentration scale where inhibition reaches its midpoint. A higher IC50 goes with weaker potency.
